# Literature values in US20240226060A1, “TOPICAL LIPOSOME POLYPHENOL COMPOSITIONS FOR TREATING AND PREVENTING VARIOUS SKIN DISORDERS AND METHODS OF PREPARATION THEREOF” (PANAG PHARMA INC., priority 2021, published 2024).
# Where two headings read alike, the source gives them in different places.
# Columns and labels:
# epidermolysis bullosa = settings: CBD oil, 3 patients
# [1] = simulated physiological conditions pH 7.4 and 37° C., within 24 hours
# [2] = 2% minoxidil in MLVs
# facial acne vulgaris = settings: for revised Leeds score at week 8: baseline 5.1
# facial skin aging = settings: 1% apigenin cream, twice daily, 2 and 4 weeks
# [3] = not given; remark: listed apart in the source
# [4] = surfactant micelles, U.S. Pat. No. 10,709,748
# [5] = twice daily 3 days, 4 hours after last dose
# [6] = 1% EGCG, 8 weeks, vs baseline and vehicle
compound,measurement,setting,value
Clc1ccc(COC(Cn2ccnc2)c2ccc(Cl)cc2Cl)c(Cl)c1 (stereo not drawn) [miconazole nitrate],encapsulation efficiency,"proliposome method with propylene glycol, El-Khordagui et al",95.6%
"C=C(C)[C@@H]1CCC(C)=C[C@H]1c1c(O)cc(CCCCC)cc1O [CBD, cannabidiol]",patient-reported outcome,epidermolysis bullosa,"faster wound healing, less blistering, and amelioration of pain"
same,CBD loss,[1],10%
same,joint swelling and pain,"CFA-induced arthritis; 1% CBD gel on shaved back, 4 days",optimally reduced swelling and alleviated pain
same,joint swelling and pain,CFA-induced arthritis; 10% CBD gel versus 1%,did not yield additional improvement
same,CFA-induced edema,"CFA-induced arthritis; lower doses (0.1, 0.5% CBD gel)",no effect
same,encapsulation efficiency,[4],86%
"CCCCCc1cc(O)c2c(c1)OC(C)(C)[C@@H]1CCC(C)=C[C@@H]21 [THC, tetrahydrocannabinol]",encapsulation efficiency,[4],92%
Oc1ccc(O)cc1 [hydroquinone],"patients presenting with erythema, burning and scaling",melasma; 4% cream in melasma patients,71%
same,MASI score reduction from baseline,"melasma; 4% cream, after three months",39%
Nc1cc(N2CCCCC2)nc(N)[n+]1[O-] [minoxidil],"drug in cumulative urine samples, liposome versus suspension & solution",[2],significant less drug
same,"drug content in dermis, liposome versus suspension & solution",[2]; [5],4-5 fold
same,"drug content in epidermis, liposome versus suspension & solution",[2]; [5],2-3 fold
same,"drug content on skin surface, liposome versus suspension & solution",[2]; [5],3-4 fold
isoscutellarein,incorporation efficiency,"liposomes, 9 parts egg PC to 2 parts flavonoid, Demetzos et al",95%
CC(=O)[C@H]1CC[C@H]2[C@@H]3CCC4=CC(=O)CC[C@]4(C)[C@H]3CC[C@]12C [progesterone],encapsulation efficiency (EE),"DPPC/cholesterol MLVs, thin film hydration, U.S. Pat. No. 4,485,054",77%
epigallocatechin 3-gallate [EGCG],revised Leeds score at week 8,facial acne vulgaris; 1% EGCG hydroalcoholic solution,1.2
same,mean inflammatory lesion count decrease,facial acne vulgaris; [6],89%
same,mean noninflammatory lesion count decrease,facial acne vulgaris; [6],79%
same,revised Leeds score at week 8,facial acne vulgaris; 5% EGCG hydroalcoholic solution,1.7
O=c1cc(-c2ccc(O)cc2)oc2cc(O)cc(O)c12 [apigenin],"dermal density, skin elasticity, length of fine wrinkles",facial skin aging,Significant improvements
same,"skin moisture content, TEWL and skin texture",facial skin aging,significantly improved
same,solubility,[3]; ethanol,poor solubility
same,solubility,[3]; propylene glycol and polyethylene glycol 400,superior solubilities
